Test results reported in patent US20220096664A1, “STABILIZED FORMULATIONS CONTAINING IODINATED CONTRAST AGENTS AND CYCLODEXTRINS” (Verrow Pharmaceuticals, Inc., priority 2012, published 2022).
Like-named read-outs stand apart in the source and are kept apart here.

Legend:
[1] = Photostability: iodide formed after visible light irradiation; type: physicochemical; conditions: 50 mM agent, 10 mM TRIS, pH 7.4, VIS 72 h
Method: Aqueous solutions comprising iodinated contrast agents were prepared and evaluated in a photolysis chamber as described in the ICH guidance document, Q1B Photostability Testing of New Drug Substances and Products, available from the US Food and Drug Administration, incorporated herein by reference. The solutions were placed in 1 cm×1 cm (3 mL) quartz cuvettes having 2 clear sides and 2 sides etched. Lids were placed on the cuvettes and sealed with a wrap of Parafilm® around the joint. The cuvettes were placed in a photolysis chamber, upright on a flat surface beneath and centered between two horizontal 24 inch fluorescent lamps, (GE, black light F20T12, 20 watt for ultraviolet, or Philips F20T12/CW, 20 watt for visible) placed 6 cm apart. The cuvettes were positioned such that their two clear sides were facing the two lamps.
Cuvettes were spaced ˜2 cm from each other, and no closer than 15 cm from the ends of the lamps. This positioning allowed reproducible light exposure to all cuvettes.
The lamps were switched on and the solutions irradiated for 18 to 24 hours for the ultraviolet (UV) lamps or 72 to 90 hours for the visible (VIS) light lamps. At the end of the selected irradiation time, the cuvettes were removed from the photolysis chamber and mixed by inversion 2-times. The caps were then removed and 40 microliter aliquots taken and diluted with 1 mL of an aqueous solution containing ˜0.9 mg/mL sodium thiosulfate. The thiosulfate solution converted any I2, IO3^−, and I3^− present in the solution tor such that total iodine species could be determined in one assay.
The diluted solutions were assayed by high pressure liquid chromatography (HPLC) using a 4.6×250 mm, C-18, 5 micron particle size, reversed phase column with detection at 280 nm for the contrast agent and 230 nm for the thiosulfate and the iodide ion (r). A mobile phase of 30:70 methanol:aqueous buffer (50 mM KH2PO4+7 mL/L 40% tetrabutyl ammonium hydroxide) at 0.75 mL/min was used for elution. Injection volume was 20 microliters. External standards were prepared containing each contrast agent, potassium iodide, and sodium thiosulfate solution and analyzed along with the irradiated samples. The results were reported as weight percentage iodide formed (mg iodide/mg contrast agent times 100).
The absorbance readings at 400 nm due to light exposure were plotted against time of exposure and the resulting correlation used to determine the UV and VIS light exposure. A change in absorbance reading of 0.45 was assumed equivalent to 200 watt hours/square meter for the UV light and a change of 0.51 was assumed equivalent to 1.2 million lux hours for the VIS light. The UV lamps provided 6.62 watts/square meter and the VIS lamps provided 7180 lux.
Aqueous solutions were prepared containing 473 mM iohexol (180 mg 1/mL), 10 mM tromethamine HCl buffer (TRIS), with and without various SCDs. The pH of the solutions was adjusted to 7.4 with 0.1N hydrochloric acid. Aliquots of the solutions were irradiated with ultraviolet (UV) light for 18 hours (119 watt hours/m^2) and other aliquots irradiated with visible (VIS) light for 90 hours (0.65 million lux hours). The solutions were then processed, analyzed and reported as in Example 2, with the exception that the iohexol peak was measured at 300 nm for both samples and standards. Results of the study are presented in the table below along with the SCD used. The SCDs included derivatives prepared from alpha, beta, and gamma CD to evaluate the effect of CD cavity size. Various substituents, including one derivative containing more than one type of substituent, and degrees of substitution (DS) were also evaluated.
Aqueous solutions were prepared containing 50 mM iodinated contrast agent, 10 mM tromethamine HCl buffer (TRIS), with and without sulfobutylether beta-cyclodextrin with an average degree of substitution-7 (SBE7-β-CD), or 2-hydroxypropyl beta-cyclodextrin with an average degree of substitution of ˜6.3 (HP6.3-β-CD) or ˜4.3 (HP4.3-β-CD). […]

[2] = type: physicochemical; conditions: for Iodide formed: 50 mM agent, 10 mM TRIS, pH 7.4, autoclaved then UV 18 h

## CC(=O)N(CC(O)CN(C(C)=O)c1c(I)c(C(=O)NCC(O)CO)c(I)c(C(=O)NCC(O)CO)c1I)c1c(I)c(C(=O)NCC(O)CO)c(I)c(C(=O)NCC(O)CO)c1I (stereo not drawn) [Iodixanol, iodixanol]
[1]; agent:SBE7-β-CD 1:0.1
  Iodide formed: 0.142 wt %
[1]; no SCD (1:0)
  Iodide formed: 0.153 wt %
[2]; agent:SBE7-β-CD 1:0.1
  Iodide formed: 0.220 wt %
[2]; no SCD (1:0)
  Iodide formed: 0.292 wt %
[2]; Iodixanol 270 mg I/mL, pH 7.4, agent:SBE7CD 1:0.05, autoclaved then UV 24 h
  Iodide Formed, UV: 0.0791 wt %
[2]; Iodixanol 270 mg I/mL, pH 7.4, agent:SBE7CD 1:0.05, autoclaved then VIS 72 h
  Iodide Formed, VIS: 0.0288 wt %
[2]; Iodixanol 270 mg I/mL, pH 7.4, no SCD (1:0), autoclaved then UV 24 h
  Iodide Formed, UV: 0.0845 wt %
[2]; Iodixanol 270 mg I/mL, pH 7.4, no SCD (1:0), autoclaved then VIS 72 h
  Iodide Formed, VIS: 0.0325 wt %
[2]; Iodixanol 320 mg I/mL, pH 7.4, agent:SBE7CD 1:0.05, autoclaved then UV 24 h
  Iodide Formed, UV: 0.0743 wt %
[2]; Iodixanol 320 mg I/mL, pH 7.4, agent:SBE7CD 1:0.05, autoclaved then VIS 72 h
  Iodide Formed, VIS: 0.0251 wt %
[2]; Iodixanol 320 mg I/mL, pH 7.4, no SCD (1:0), autoclaved then UV 24 h
  Iodide Formed, UV: 0.0751 wt %
[2]; Iodixanol 320 mg I/mL, pH 7.4, no SCD (1:0), autoclaved then VIS 72 h
  Iodide Formed, VIS: 0.0265 wt %
